Experimental data taken from doi:10.1101/2023.10.03.560722, “Drug Discovery in Low Data Regimes: Leveraging a Computational Pipeline for the Discovery of Novel SARS-CoV-2 Nsp14-MTase Inhibitors” (bioRxiv, 2024).
Where two headings read alike, the source gives them in different places.

Tests used:
SARS-CoV-2 = type: cell-based; settings: Calu-3 cells, lung epithelial SARS-CoV-2 infection model
GLP = target: T1, GLP (Homo sapiens, UniProt Q9H9B1); test: human MTase selectivity panel; type: biochemical
T1 sequence (Q9H9B1 1-1298): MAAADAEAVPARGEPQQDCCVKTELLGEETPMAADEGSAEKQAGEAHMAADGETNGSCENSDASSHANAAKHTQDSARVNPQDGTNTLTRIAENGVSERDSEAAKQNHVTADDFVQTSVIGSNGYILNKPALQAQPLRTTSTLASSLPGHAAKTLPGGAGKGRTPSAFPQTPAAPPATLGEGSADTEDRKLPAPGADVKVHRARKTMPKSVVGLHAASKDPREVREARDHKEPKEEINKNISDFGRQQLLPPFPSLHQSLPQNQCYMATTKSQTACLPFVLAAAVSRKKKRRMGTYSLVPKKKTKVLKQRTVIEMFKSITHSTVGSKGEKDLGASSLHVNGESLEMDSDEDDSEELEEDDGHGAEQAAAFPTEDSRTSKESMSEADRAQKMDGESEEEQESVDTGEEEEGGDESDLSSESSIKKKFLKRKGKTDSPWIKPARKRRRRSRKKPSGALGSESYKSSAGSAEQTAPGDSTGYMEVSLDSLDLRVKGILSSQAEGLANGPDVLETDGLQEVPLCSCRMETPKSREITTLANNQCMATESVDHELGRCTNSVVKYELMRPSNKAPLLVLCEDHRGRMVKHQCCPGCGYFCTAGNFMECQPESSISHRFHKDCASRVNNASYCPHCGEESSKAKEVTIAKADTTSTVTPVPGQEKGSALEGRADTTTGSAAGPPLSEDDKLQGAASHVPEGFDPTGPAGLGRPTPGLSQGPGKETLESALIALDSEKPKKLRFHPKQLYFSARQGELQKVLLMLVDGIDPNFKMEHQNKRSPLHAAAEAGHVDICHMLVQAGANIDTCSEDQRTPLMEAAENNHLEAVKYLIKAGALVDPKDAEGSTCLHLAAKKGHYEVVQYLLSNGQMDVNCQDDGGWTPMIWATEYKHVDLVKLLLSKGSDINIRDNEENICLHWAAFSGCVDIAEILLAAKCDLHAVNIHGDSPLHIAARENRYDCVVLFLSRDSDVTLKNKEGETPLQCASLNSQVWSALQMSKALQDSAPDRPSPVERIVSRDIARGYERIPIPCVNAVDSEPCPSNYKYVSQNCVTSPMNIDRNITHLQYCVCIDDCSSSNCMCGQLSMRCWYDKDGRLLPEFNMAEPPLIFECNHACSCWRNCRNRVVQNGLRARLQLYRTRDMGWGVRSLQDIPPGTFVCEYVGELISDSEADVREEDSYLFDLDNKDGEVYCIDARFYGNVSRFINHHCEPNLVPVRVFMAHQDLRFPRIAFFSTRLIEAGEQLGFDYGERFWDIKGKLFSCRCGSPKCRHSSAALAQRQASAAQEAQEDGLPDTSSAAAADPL

SUV420H2 = SUV420H2 (Homo sapiens, UniProt Q86Y97); test: human MTase selectivity panel; type: biochemical
SUV420H2, sequence (Q86Y97 whole entry): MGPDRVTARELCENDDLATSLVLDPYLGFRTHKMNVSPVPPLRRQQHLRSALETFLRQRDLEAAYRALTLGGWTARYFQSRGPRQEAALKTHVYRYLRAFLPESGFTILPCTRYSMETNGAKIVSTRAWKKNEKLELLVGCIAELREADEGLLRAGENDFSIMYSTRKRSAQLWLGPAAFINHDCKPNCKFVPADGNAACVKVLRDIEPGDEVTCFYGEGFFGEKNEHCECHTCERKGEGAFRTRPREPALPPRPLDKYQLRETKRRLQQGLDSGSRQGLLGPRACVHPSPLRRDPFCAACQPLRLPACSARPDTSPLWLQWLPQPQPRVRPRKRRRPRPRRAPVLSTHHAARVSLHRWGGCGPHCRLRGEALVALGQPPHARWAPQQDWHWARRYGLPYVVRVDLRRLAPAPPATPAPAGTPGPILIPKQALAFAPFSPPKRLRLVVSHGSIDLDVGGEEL

PRMT5 = PRMT5 (Homo sapiens, UniProt O14744); test: human MTase selectivity panel; type: biochemical
PRMT5, sequence (O14744 whole entry): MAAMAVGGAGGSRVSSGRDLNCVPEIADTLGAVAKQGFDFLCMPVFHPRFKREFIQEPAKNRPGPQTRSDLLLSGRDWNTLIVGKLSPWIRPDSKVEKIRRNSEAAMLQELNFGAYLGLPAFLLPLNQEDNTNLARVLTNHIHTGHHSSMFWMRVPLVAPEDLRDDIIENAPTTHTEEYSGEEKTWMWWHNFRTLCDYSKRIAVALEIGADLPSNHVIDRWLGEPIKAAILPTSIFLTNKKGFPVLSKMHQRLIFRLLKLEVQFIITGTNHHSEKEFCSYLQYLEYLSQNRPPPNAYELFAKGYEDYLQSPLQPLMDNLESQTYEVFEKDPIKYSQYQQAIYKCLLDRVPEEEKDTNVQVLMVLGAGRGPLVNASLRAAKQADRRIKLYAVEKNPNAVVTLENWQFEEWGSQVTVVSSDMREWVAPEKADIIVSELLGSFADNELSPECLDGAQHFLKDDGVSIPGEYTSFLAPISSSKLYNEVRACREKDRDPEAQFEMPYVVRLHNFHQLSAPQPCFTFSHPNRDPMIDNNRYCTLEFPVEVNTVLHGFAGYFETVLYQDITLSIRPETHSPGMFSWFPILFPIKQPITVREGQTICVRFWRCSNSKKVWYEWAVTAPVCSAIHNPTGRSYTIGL
PRMT5, sequence (Q9BQA1 whole entry partner): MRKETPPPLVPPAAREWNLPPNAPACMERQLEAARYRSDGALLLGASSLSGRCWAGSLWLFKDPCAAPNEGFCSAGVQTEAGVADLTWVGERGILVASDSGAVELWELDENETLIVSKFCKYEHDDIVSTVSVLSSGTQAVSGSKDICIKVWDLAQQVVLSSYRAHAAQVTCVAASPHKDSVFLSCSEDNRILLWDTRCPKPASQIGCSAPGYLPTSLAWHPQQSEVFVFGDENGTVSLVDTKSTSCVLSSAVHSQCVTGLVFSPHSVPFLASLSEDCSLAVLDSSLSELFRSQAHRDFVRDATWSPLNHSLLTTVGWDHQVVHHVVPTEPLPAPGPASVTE

PRMT8 = PRMT8 (Homo sapiens, UniProt Q9NR22); test: human MTase selectivity panel; type: biochemical
PRMT8, sequence (Q9NR22 whole entry): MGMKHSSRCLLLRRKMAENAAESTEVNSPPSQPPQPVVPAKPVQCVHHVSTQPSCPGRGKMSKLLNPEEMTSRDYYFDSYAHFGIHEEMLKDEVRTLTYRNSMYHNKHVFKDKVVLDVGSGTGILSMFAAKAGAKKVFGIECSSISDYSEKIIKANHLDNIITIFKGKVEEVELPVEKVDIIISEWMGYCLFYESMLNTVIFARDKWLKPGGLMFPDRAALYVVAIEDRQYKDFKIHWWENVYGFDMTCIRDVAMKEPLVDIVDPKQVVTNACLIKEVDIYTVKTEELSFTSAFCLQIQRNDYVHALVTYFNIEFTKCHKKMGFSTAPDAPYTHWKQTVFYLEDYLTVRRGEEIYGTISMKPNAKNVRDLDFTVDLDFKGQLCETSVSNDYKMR

PRDM9 = PRDM9 (Homo sapiens, UniProt Q9NQV7); test: human MTase selectivity panel; type: biochemical
PRDM9, sequence (Q9NQV7 whole entry): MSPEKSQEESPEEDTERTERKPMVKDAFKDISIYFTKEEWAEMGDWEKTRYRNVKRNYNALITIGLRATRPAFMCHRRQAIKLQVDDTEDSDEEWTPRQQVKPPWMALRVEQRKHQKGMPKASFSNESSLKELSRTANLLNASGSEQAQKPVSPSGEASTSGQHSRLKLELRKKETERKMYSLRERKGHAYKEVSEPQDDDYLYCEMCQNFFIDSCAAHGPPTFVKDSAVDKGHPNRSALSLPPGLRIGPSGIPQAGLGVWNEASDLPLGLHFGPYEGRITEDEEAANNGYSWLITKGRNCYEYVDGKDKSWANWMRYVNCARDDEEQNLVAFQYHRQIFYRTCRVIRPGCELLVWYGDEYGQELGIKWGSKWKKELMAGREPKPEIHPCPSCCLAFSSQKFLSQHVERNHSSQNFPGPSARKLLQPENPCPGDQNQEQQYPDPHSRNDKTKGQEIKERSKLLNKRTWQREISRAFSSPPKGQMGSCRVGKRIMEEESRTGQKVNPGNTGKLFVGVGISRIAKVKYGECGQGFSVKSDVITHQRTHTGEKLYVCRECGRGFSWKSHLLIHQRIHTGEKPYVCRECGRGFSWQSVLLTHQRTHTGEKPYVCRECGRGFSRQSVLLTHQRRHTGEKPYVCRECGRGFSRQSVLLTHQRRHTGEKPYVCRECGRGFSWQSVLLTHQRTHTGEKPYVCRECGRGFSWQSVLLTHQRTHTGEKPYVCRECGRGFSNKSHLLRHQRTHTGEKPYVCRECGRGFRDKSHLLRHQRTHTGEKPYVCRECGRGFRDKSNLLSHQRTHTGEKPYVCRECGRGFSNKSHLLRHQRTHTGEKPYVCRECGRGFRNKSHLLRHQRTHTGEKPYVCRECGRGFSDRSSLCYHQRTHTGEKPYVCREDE

SMYD3 = target: T2, SMYD3 (Homo sapiens, UniProt Q9H7B4); test: human MTase selectivity panel; type: biochemical
T2 sequence (Q9H7B4 1-428): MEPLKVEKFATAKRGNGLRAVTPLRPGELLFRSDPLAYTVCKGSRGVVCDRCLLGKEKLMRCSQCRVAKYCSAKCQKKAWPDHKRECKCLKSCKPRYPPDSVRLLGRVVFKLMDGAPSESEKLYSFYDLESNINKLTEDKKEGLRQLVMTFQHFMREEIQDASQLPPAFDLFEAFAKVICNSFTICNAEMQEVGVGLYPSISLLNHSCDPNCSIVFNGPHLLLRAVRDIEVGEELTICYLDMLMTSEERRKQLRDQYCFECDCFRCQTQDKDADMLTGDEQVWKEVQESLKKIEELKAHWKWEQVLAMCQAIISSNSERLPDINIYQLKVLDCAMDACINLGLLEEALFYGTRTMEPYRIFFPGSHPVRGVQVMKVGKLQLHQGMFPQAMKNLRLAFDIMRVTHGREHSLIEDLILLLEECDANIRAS

ASH1L = ASH1L (Homo sapiens, UniProt Q9NR48); test: human MTase selectivity panel; type: biochemical
[1] = average ± SD, read-out: Activity (%) at 10 µM Average
[2] = read-out: Activity (%) at 10 µM Replicate 1
[3] = read-out: Activity (%) at 10 µM Replicate 2
[4] = read-out: Activity (%) at 10 µM Replicate 3

Nc1ncnc2c1ncn2[C@@H]1O[C@H](CSCc2ccc(Cl)cc2)[C@@H](O)[C@H]1O [NSC620333]
anti-SARS-CoV-2 activity (SARS-CoV-2): demonstrated anti-SARS-CoV-2 activity
activity at 10 µM (GLP; [1]): 100 ± 5%
activity at 10 µM (GLP; [2]): 95%
activity at 10 µM (GLP; [3]): 105%
activity at 10 µM (GLP; [4]): 101%
activity at 10 µM (SUV420H2; [1]): 96 ± 9%
activity at 10 µM (SUV420H2; [2]): 96%
activity at 10 µM (SUV420H2; [3]): 104%
activity at 10 µM (SUV420H2; [4]): 86%
activity at 10 µM (PRMT5; [1]): 63 ± 7%
activity at 10 µM (PRMT5; [2]): 69%
activity at 10 µM (PRMT5; [3]): 64%
activity at 10 µM (PRMT5; [4]): 55%
activity at 10 µM (PRMT8; [1]): 96 ± 3%
activity at 10 µM (PRMT8; [2]): 97%
activity at 10 µM (PRMT8; [3]): 99%
activity at 10 µM (PRMT8; [4]): 93%
activity at 10 µM (PRDM9; [1]): 106 ± 3%
activity at 10 µM (PRDM9; [2]): 110%
activity at 10 µM (PRDM9; [3]): 105%
activity at 10 µM (PRDM9; [4]): 104%
activity at 10 µM (SMYD3; [1]): 100 ± 9%
activity at 10 µM (SMYD3; [2]): 101%
activity at 10 µM (SMYD3; [3]): 108%
activity at 10 µM (SMYD3; [4]): 91%
activity at 10 µM (ASH1L; [1]): 105 ± 8%
activity at 10 µM (ASH1L; [2]): 113%
activity at 10 µM (ASH1L; [3]): 97%
activity at 10 µM (ASH1L; [4]): 104%
